Measured values: patent US20250144067A1, “PERSONALIZED STARVATION THERAPY FOR CANCER” (Faeth Therapeutics, Inc., priority 2021, published 2025)
Structures can show the parent of a compound that is named as a salt. Where two headings read alike, the source gives them in different places.

How the values were obtained:
[1] = tested on: NCI-H292 lung cancer cells; assay: FDA drug screening, complete media vs cholesterol-free media with simvastatin (TABLE 2); format: cell-based, human
[2] = tested on: NCI-H292 lung cancer cells; assay: FDA drug screening, complete media vs cholesterol-free media without statin (TABLE 1); format: cell-based, human
[3] = NCI-H292 cells, FDA drug library screen, cholesterol-free media with simvastatin 0.04 μM
[4] = NCI-H292 cells, FDA drug library screen, complete media
[5] = complete media minus cholesterol-free media + simvastatin, >0 enhanced anti-cancer activity, about 0 neutral, <0 antagonist
[6] = NCI-H292 cells, cholesterol-free media without statin
[7] = complete vs cholesterol-free media, greater than 0 enhanced anti-cancer activity, about 0 neutral, below 0 antagonists
[8] = complete media minus cholesterol-free media + simvastatin (0.04 μM), >0 enhanced anti-cancer activity, about 0 neutral, <0 antagonist
[9] = Complete minus Cholesterol-free, >0 enhanced anti-cancer activity, about 0 neutral, <0 antagonist
[10] = NCI-H292 cells, cholesterol-free media without statin, FDA drug library screen
[11] = NCI-H292 cells, complete media, FDA drug library screen
[12] = NCI-H292 cells, FDA library drug in cholesterol-free media with simvastatin 0.04 μM
[13] = NCI-H292 cells, FDA library drug in complete media
[14] = complete media vs cholesterol-free media + simvastatin (0.04 μM), >0 enhanced anti-cancer activity, about 0 neutral, <0 antagonist
[15] = NCI-H292 cells, cholesterol-free media with simvastatin 0.04 μM, cell growth value in FDA drug screen
[16] = NCI-H292 cells, complete media, cell growth value in FDA drug screen
[17] = Complete minus Cholesterol-free, greater than 0 enhanced anti-cancer activity, about 0 neutral, below 0 antagonist
[18] = NCI-H292 cells, FDA drug library screen, cholesterol-free media without statin

CN(C)CC/C=C1/c2ccccc2Sc2ccc(Cl)cc21 [Chlorprothixene (hydrochloride)]
Cholesterol-free media + simvastatin (0.04 μM) [1, 3]: 0.8374 | Complete Media [1, 4]: 1.056 | Difference [1, 5]: 0.22 | Cholesterol-free [2, 6]: 1.492 | Complete ([2]; NCI-H292 cells, complete media): 1.027 | Difference [2, 7]: −0.46

CN(C)CC/C=C1/c2ccccc2Sc2ccc(Cl)cc21 [Chlorprothixene]
Cholesterol-free media + simvastatin (0.04 μM) [1, 3]: 2.022 | Difference [1, 8]: −0.96 | Cholesterol-free [2, 6]: 1.606 | Complete ([2]; NCI-H292 cells, complete media): 1.176 | Difference [2, 7]: −0.43

Cc1ccc2c(Cl)cc(Cl)c(O)c2n1 [Chlorquinaldol]
Cholesterol-free media + simvastatin (0.04 μM) ([1]; NCI-H292 cells, cholesterol-free media with simvastatin 0.04 μM, FDA drug library screen (TABLE 2)): 0.0008861 | Complete Media ([1]; NCI-H292 cells, complete media, FDA drug library screen (TABLE 2)): 0.007501 | Difference [1, 8]: 0.01 | Difference [2, 9]: 0.01 | Cholesterol-free [2, 10]: 0.003949 | Complete [2, 11]: 0.01849

CN(C)[C@@H]1C(O)=C(C(N)=O)C(=O)[C@@]2(O)C(O)=C3C(=O)c4c(O)ccc(Cl)c4[C@@](C)(O)[C@H]3C[C@@H]12 [Chlortetracycline (hydrochloride)]
Cholesterol-free media + simvastatin (0.04 μM) [1, 12]: 1.491 | Complete Media [1, 13]: 1.106 | Difference [1, 14]: −0.38 | Cholesterol-free [2, 6]: 1.583 | Complete ([2]; NCI-H292 cells, complete media): 1.205 | Difference [2, 7]: −0.38

NS(=O)(=O)c1cc(C2(O)NC(=O)c3ccccc32)ccc1Cl (stereo not shown) [Chlorthalidone]
Cholesterol-free media + simvastatin (0.04 μM) ([1]; NCI-H292 cells, drug in cholesterol-free media with simvastatin 0.04 μM): 1.215 | Complete Media ([1]; NCI-H292 cells, drug in complete media): 0.9907 | Difference [1, 14]: −0.22 | Difference [2, 9]: −0.22 | Cholesterol-free [2, 6]: 1.209 | Complete ([2]; NCI-H292 cells, complete media): 0.9927

CC(C)CCC[C@@H](C)[C@H]1CC[C@H]2[C@@H]3CC=C4C[C@@H](O)CC[C@]4(C)[C@H]3CC[C@]12C [Cholesterol]
Cholesterol-free media + simvastatin (0.04 μM) [1, 12]: 1.697 | Complete Media [1, 13]: 1.069 | Difference [1, 14]: −0.63 | Difference [2, 9]: −0.27 | Cholesterol-free [2, 6]: 1.34 | Complete ([2]; NCI-H292 cells, complete media): 1.074

C[N+](C)(C)CCO.O=C([O-])C(O)C(O)C(=O)O (stereo not shown) [Choline (bitartrate)]
Cholesterol-free media + simvastatin (0.04 μM) [1]: 1.34 | Complete Media [1]: 1.054 | Difference [1]: −0.29 | Cholesterol-free [2]: 1.646 | Complete [2]: 0.8603 | Difference [2]: −0.79

C[N+](C)(C)CCO.[Cl-] [Choline (chloride)]
Cholesterol-free media + simvastatin (0.04 μM) [1, 15]: 0.793 | Complete Media [1, 16]: 0.8494 | Difference [1, 5]: 0.06 | Cholesterol-free [2, 10]: 0.7223 | Complete [2, 11]: 1.217 | Difference ([2]; complete vs cholesterol-free media, >0 enhanced anti-cancer activity, about 0 neutral, <0 antagonist): 0.49

CC(C)(Oc1ccc(C(=O)c2ccc(Cl)cc2)cc1)C(=O)[O-].C[N+](C)(C)CCO [Choline Fenofibrate]
Cholesterol-free media + simvastatin (0.04 μM) [1, 3]: 1.101 | Complete Media [1, 4]: 1.295 | Difference [1, 5]: 0.19 | Difference ([2]; Complete minus Cholesterol-free, greater than 0 enhanced anti-cancer activity, about 0 neutral, below 0 antagonists): −0.65 | Cholesterol-free ([2]; NCI-H292 cells in cholesterol-free media without statin): 1.252 | Complete ([2]; NCI-H292 cells in complete media): 0.6045

Cn1c(=O)c2[nH]cnc2n(C)c1=O [Choline theophyllinate]
Cholesterol-free media + simvastatin (0.04 μM) [1, 3]: 1.275 | Difference [1, 14]: −0.10 | Difference [2, 9]: −0.20 | Cholesterol-free [2, 6]: 1.108 | Complete ([2]; NCI-H292 cells, complete media): 0.9038

O=C(O)c1cc(=O)c2ccccc2o1 [Chromocarb]
Cholesterol-free media + simvastatin (0.04 μM) [1, 12]: 1.932 | Complete Media [1, 13]: 1.471 | Difference [1, 14]: −0.46 | Cholesterol-free [2, 6]: 1.221 | Complete ([2]; NCI-H292 cells, complete media): 0.8012 | Difference [2, 7]: −0.42

CC(C)C(=O)OCC(=O)[C@@]12O[C@H](C3CCCCC3)O[C@@H]1C[C@H]1[C@@H]3CCC4=CC(=O)C=C[C@]4(C)[C@H]3[C@@H](O)C[C@@]12C [Ciclesonide]
Cholesterol-free media + simvastatin (0.04 μM) [1, 3]: 0.6652 | Complete Media [1, 4]: 0.5742 | Difference [1, 14]: −0.09 | Difference [2, 9]: −0.28 | Cholesterol-free [2, 6]: 0.7014 | Complete ([2]; NCI-H292 cells, complete media): 0.4234

Cc1cc(C2CCCCC2)n(O)c(=O)c1 [Ciclopirox (olamine)]
Cholesterol-free media + simvastatin (0.04 μM) [1, 15]: 0.5971 | Complete Media [1, 16]: 0.715 | Difference [1, 5]: 0.12 | Difference [2, 17]: −0.13 | Cholesterol-free [2, 18]: 0.3971 | Complete [2, 4]: 0.2691

Cc1cc(C2CCCCC2)n(O)c(=O)c1 [Ciclopirox]
Cholesterol-free media + simvastatin (0.04 μM) [1, 3]: 0.2219 | Complete Media [1, 4]: 0.6804 | Difference [1, 5]: 0.46 | Difference [2, 17]: −0.10 | Cholesterol-free [2, 18]: 0.2725 | Complete [2, 4]: 0.1741

Nc1ccn(C[C@@H](CO)OCP(=O)(O)O)c(=O)n1 [Cidofovir]
Cholesterol-free media + simvastatin (0.04 μM) [1, 15]: 0.9844 | Complete Media [1, 16]: 1.01 | Difference [1, 5]: 0.03 | Cholesterol-free [2, 6]: 2.027 | Complete ([2]; NCI-H292 cells, complete media): 1.556 | Difference [2, 7]: −0.47
